This assay deals with HBV rcDNA. In words: HepDE19 assay with bDNA quantitation of HBV rcDNA. Format: cell-based, hepatitis B virus (HBV). Summed up:
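HepDE19 cells were switched to tetracycline-free medium and exposed to compound (0.5% DMSO final) for 7 days at 37° C. rcDNA was then quantified by bDNA with an HBV-specific probe set. In parallel, viability was read as ATP content (CellTiter-Glo) after 4 days on replicate plates.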

[1] abbreviates: HepDE19 cells, 7 day incubation, rcDNA measured by Quantigene 2.0 bDNA assay, top concentration 25 μM; read-out: DE-19bDNA EC50.
Setting [2] is: read-out: DE-19bDNA EC50; HepDE19 cells, 7 day incubation, rcDNA measured by Quantigene 2.0 bDNA assay, top concentration 25 μM.

Where two headings read alike, the source gives them in different places. Some results are limits rather than exact numbers.

As a reminder, the EC50 is the midpoint of the concentration-response curve. Turning to `CC(c1c[nH]c(=O)c2c(F)c(F)ccc12)N(C)C(=O)c1cc2c(Cl)cccn2c1` (single isomer, unassigned) [Compound 93, 8-Chloro-N-(1-(7,8-difluoro-1-oxo-1,2-dihydroisoquinolin-4-yl)ethyl)-N-methylindolizine-2-carboxamide], the EC50 under setting [1] came to 0.04 µM.
Still for that read-out and setting: next, `CC(c1c[nH]c(=O)c2cc(F)c(F)cc12)N(CCCO)C(=O)c1[nH]c2ccccc2c1Cl` (single isomer, unassigned) [Compound 94, 3-Chloro-N-(1-(6,7-difluoro-1-oxo-1,2-dihydroisoquinolin-4-yl)ethyl)-N-(3-hydroxypropyl)-1H-indole-2-carboxamide]: 19 µM; `CC(c1c[nH]c(=O)c2cc(F)c(F)cc12)N(CCCO)C(=O)c1[nH]c2ccccc2c1Cl` (single isomer, unassigned) [Compound 95, 3-Chloro-N-(1-(6,7-difluoro-1-oxo-1,2-dihydroisoquinolin-4-yl)ethyl)-N-(3-hydroxypropyl)-1H-indole-2-carboxamide]: 0.4 µM; `CC(c1c[nH]c(=O)c2cc(F)c(F)cc12)N(C)C(=O)c1cc2cc(Cl)ccn2c1` (single isomer, unassigned) [Compound 96, 7-Chloro-N-(1-(6,7-difluoro-1-oxo-1,2-dihydroisoquinolin-4-yl)ethyl)-N-methylindolizine-2-carboxamide]: 4.6 µM.
On the same count and under the same terms, in the case of `CC(c1c[nH]c(=O)c2cc(F)c(F)cc12)N(C)C(=O)c1cc2cc(Cl)ccn2c1` (single isomer, unassigned) [Compound 97, 7-Chloro-N-(1-(6,7-difluoro-1-oxo-1,2-dihydroisoquinolin-4-yl)ethyl)-N-methylindolizine-2-carboxamide] it was 0.09 µM; in that of `CC(c1c[nH]c(=O)c2cc(F)c(F)cc12)N(C)C(=O)c1cc2ccc(F)cn2c1` (single isomer, unassigned) [Compound 102, N-(1-(6,7-Difluoro-1-oxo-1,2-dihydroisoquinolin-4-yl)ethyl)-6-fluoro-N-methylindolizine-2-carboxamide], 12 µM.
Same read-out and setting: in the case of `CC(c1c[nH]c(=O)c2cc(F)c(F)cc12)N(C)C(=O)c1cc2ccc(F)cn2c1` (single isomer, unassigned) [Compound 103, N-(1-(6,7-Difluoro-1-oxo-1,2-dihydroisoquinolin-4-yl)ethyl)-6-fluoro-N-methylindolizine-2-carboxamide] it was 0.03 µM; in that of `CC(c1c[nH]c(=O)c2cc(F)c(F)cc12)N(C)C(=O)c1cc2cc(F)ccn2c1` (single isomer, unassigned) [Compound 108, N-(1-(6,7-Difluoro-1-oxo-1,2-dihydroisoquinolin-4-yl)ethyl)-7-fluoro-N-methylindolizine-2-carboxamide], 0.02 µM.
On to `CC(c1c[nH]c(=O)c2cc(F)c(F)cc12)N(C)C(=O)c1cc2cc(F)ccn2c1` (single isomer, unassigned) [Compound 109, N-(1-(6,7-Difluoro-1-oxo-1,2-dihydroisoquinolin-4-yl)ethyl)-7-fluoro-N-methylindolizine-2-carboxamide], for which the EC50 under setting [1] worked out at 3.2 µM.
Still for that read-out and setting: in the case of `CC(c1c[nH]c(=O)c2cc(F)c(F)cc12)N(C)C(=O)c1cc2ccc(Cl)cn2c1` (single isomer, unassigned) [Compound 110, 6-Chloro-N-(1-(6,7-difluoro-1-oxo-1,2-dihydroisoquinolin-4-yl)ethyl)-N-methylindolizine-2-carboxamide] it was 0.04 µM; in that of `CC(c1c[nH]c(=O)c2cc(F)c(F)cc12)N(C)C(=O)c1cc2ccc(Cl)cn2c1` (single isomer, unassigned) [Compound 111, 6-Chloro-N-(1-(6,7-difluoro-1-oxo-1,2-dihydroisoquinolin-4-yl)ethyl)-N-methylindolizine-2-carboxamide], 1.4 µM; in that of `CC(c1c[nH]c(=O)c2cc(F)c(F)cc12)N(C)C(=O)c1ccc(C(F)(F)F)c(F)c1` (single isomer, unassigned) [Compound 119, N-(1-(6,7-Difluoro-1-oxo-1,2-dihydroisoquinolin-4-yl)ethyl)-3-fluoro-N-methyl-4-(trifluoromethyl) benzamide], 4.02 µM.
`CC(c1c[nH]c(=O)c2cc(F)c(F)cc12)N(C)C(=O)c1ccc(C(F)(F)F)c(F)c1` (single isomer, unassigned) [Compound 120, N-(1-(6,7-Difluoro-1-oxo-1,2-dihydroisoquinolin-4-yl)ethyl)-3-fluoro-N-methyl-4-(trifluoromethyl) benzamide]: under setting [1], the EC50 was determined as 0.02 µM.
With `CC(c1c[nH]c(=O)c2cc(F)c(F)cc12)N(C)C(=O)c1ccc(Cl)c(F)c1` (single isomer, unassigned) [Compound 121, 4-Chloro-N-(1-(6,7-difluoro-1-oxo-1,2-dihydroisoquinolin-4-yl)ethyl)-3-fluoro-N-methylbenzamide], the EC50 under setting [1] was 5.68 µM.
In the case of `CC(c1c[nH]c(=O)c2cc(F)c(F)cc12)N(C)C(=O)c1ccc(Cl)c(F)c1` (single isomer, unassigned) [Compound 122, 4-Chloro-N-(1-(6,7-difluoro-1-oxo-1,2-dihydroisoquinolin-4-yl)ethyl)-3-fluoro-N-methylbenzamide], the EC50 under setting [1] came to 0.04 µM.
On the same count and under the same terms, in the case of `CC(c1c[nH]c(=O)c2cc(F)c(F)cc12)N(C)C(=O)c1cc(F)c(F)c(F)c1` (single isomer, unassigned) [Compound 123, N-(1-(6,7-Difluoro-1-oxo-1,2-dihydroisoquinolin-4-yl)ethyl)-3,4,5-trifluoro-N-methylbenzamide] it was 22.4 µM; in that of `CC(c1c[nH]c(=O)c2cc(F)c(F)cc12)N(C)C(=O)c1cc(F)c(F)c(F)c1` (single isomer, unassigned) [Compound 124, N-(1-(6,7-Difluoro-1-oxo-1,2-dihydroisoquinolin-4-yl)ethyl)-3,4,5-trifluoro-N-methylbenzamide], 0.19 µM; in that of `CC(c1c[nH]c(=O)c2cc(F)c(F)cc12)N(C)C(=O)c1cccc(C(F)F)c1` (single isomer, unassigned) [Compound 125, N-(1-(6,7-Difluoro-1-oxo-1,2-dihydroisoquinolin-4-yl)ethyl)-3-(difluoromethyl)-N-methylbenzamide], 24.8 µM.
For `CC(c1c[nH]c(=O)c2cc(F)c(F)cc12)N(C)C(=O)c1cccc(C(F)F)c1` (single isomer, unassigned) [Compound 126, N-(1-(6,7-Difluoro-1-oxo-1,2-dihydroisoquinolin-4-yl)ethyl)-3-(difluoromethyl)-N-methylbenzamide], the EC50 under setting [1] amounted to 0.1 µM.
On to `CC(c1c[nH]c(=O)c2cc(F)c(F)cc12)N(C)C(=O)c1ccccc1` (single isomer, unassigned) [Compound 127, N-(1-(6,7-Difluoro-1-oxo-1,2-dihydroisoquinolin-4-yl)ethyl)-N-methylbenzamide], for which the EC50 under setting [2] turned out to be 3.53 µM.
Take `CC(c1c[nH]c(=O)c2cc(F)c(F)cc12)N(C)C(=O)c1ccccc1` (single isomer, unassigned) [Compound 128, N-(1-(6,7-Difluoro-1-oxo-1,2-dihydroisoquinolin-4-yl)ethyl)-N-methylbenzamide]: under setting [2], the EC50 was greater than 25 µM.
As for `CC(c1c[nH]c(=O)c2cc(F)c(F)cc12)N(C)C(=O)c1ccc(C(F)(F)F)cc1` (single isomer, unassigned) [Compound 129, N-(1-(6,7-Difluoro-1-oxo-1,2-dihydroisoquinolin-4-yl)ethyl)-N-methyl-4-(trifluoromethyl) benzamide], the EC50 under setting [1] is 6.46 µM.
Regarding `CC(c1c[nH]c(=O)c2cc(F)c(F)cc12)N(C)C(=O)c1ccc(C(F)(F)F)cc1` (single isomer, unassigned) [Compound 130, N-(1-(6,7-Difluoro-1-oxo-1,2-dihydroisoquinolin-4-yl)ethyl)-N-methyl-4-(trifluoromethyl) benzamide], the EC50 under setting [1] worked out at 0.02 µM.
Turning to `CC(c1c[nH]c(=O)c2cc(F)c(F)cc12)N(C)C(=O)c1ccc(Cl)cc1` (single isomer, unassigned) [Compound 131, 4-Chloro-N-(1-(6,7-difluoro-1-oxo-1,2-dihydroisoquinolin-4-yl)ethyl)-N-methylbenzamide], the EC50 under setting [2] stood at 14.7 µM.
Regarding `CC(c1c[nH]c(=O)c2cc(F)c(F)cc12)N(C)C(=O)c1ccc(Cl)cc1` (single isomer, unassigned) [Compound 132, 4-Chloro-N-(1-(6,7-difluoro-1-oxo-1,2-dihydroisoquinolin-4-yl)ethyl)-N-methylbenzamide], under setting [2], the 50% effective concentration (EC50) turned out to be 0.06 µM.
For `CC(c1c[nH]c(=O)c2cc(F)c(F)cc12)N(C)C(=O)c1ccc(F)c(C(F)F)c1` (single isomer, unassigned) [Compound 133, N-(1-(6,7-Difluoro-1-oxo-1,2-dihydroisoquinolin-4-yl)ethyl)-3-(difluoromethyl)-4-fluoro-N-methylbenzamide], the EC50 under setting [1] worked out at 14.7 µM.
Same read-out and setting: in the case of `CC(c1c[nH]c(=O)c2cc(F)c(F)cc12)N(C)C(=O)c1ccc(F)c(C(F)F)c1` (single isomer, unassigned) [Compound 134, N-(1-(6,7-Difluoro-1-oxo-1,2-dihydroisoquinolin-4-yl)ethyl)-3-(difluoromethyl)-4-fluoro-N-methylbenzamide] it was 0.06 µM; in that of `CC(c1c[nH]c(=O)c2cc(F)c(F)cc12)N(C)C(=O)c1ccc(F)c(Cl)c1` (single isomer, unassigned) [Compound 135, 3-Chloro-N-(1-(6,7-difluoro-1-oxo-1,2-dihydroisoquinolin-4-yl)ethyl)-4-fluoro-N-methylbenzamide], 9.61 µM.
Take `CC(c1c[nH]c(=O)c2cc(F)c(F)cc12)N(C)C(=O)c1ccc(F)c(Cl)c1` (single isomer, unassigned) [Compound 136, 3-Chloro-N-(1-(6,7-difluoro-1-oxo-1,2-dihydroisoquinolin-4-yl)ethyl)-4-fluoro-N-methylbenzamide]: under setting [1], the EC50 came to 0.17 µM.

The values are drawn from US20230295115A1, “SUBSTITUTED ISOQUINOLINYLMETHYL AMIDES, ANALOGUES THEREOF, AND METHODS USING SAME” (priority 2020, published 2023).
